According to PubChem BioAssay (NCI):
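1) Cells in 96-well plates. 2) Compound, 48 h, 5 concentrations. 3) Linear interpolation between surrounding doses. 4) Unreached endpoint = highest concentration. Definition used: TGI = concentration required for complete inhibition of growth.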

Experiments:
Test in all cases: NCI tumour cell line growth inhibition, 48 h
[1] = system: OVCAR-4 ovarian
[2] = system: SN12C renal
[3] = system: 786-0 renal
[4] = system: HCT-116 colon
[5] = system: PC-3 prostate
[6] = system: SK-MEL-2 melanoma
[7] = system: SW-620 colon
[8] = system: HCT-15 colon
[9] = system: OVCAR-3 ovarian
[10] = system: A549 NSCLC
[11] = system: SK-OV-3 ovarian
[12] = system: MDA-MB-231 breast
[13] = system: TK-10 renal
[14] = system: UACC-257 melanoma
[15] = system: KM12 colon
[16] = system: COLO 205 colon
[17] = system: BT-549 breast
[18] = system: NCI-H522 lung
[19] = system: SNB-19 CNS
[20] = system: NCI-H460 lung
[21] = system: OVCAR-5 ovarian
[22] = system: UO-31 renal
[23] = system: MDA-MB-435
[24] = system: HOP-62 NSCLC
[25] = system: MALME-3M melanoma
[26] = system: M14 melanoma
[27] = system: HT29 colon
[28] = system: A498 renal
[29] = system: HOP-92 NSCLC
[30] = system: DU-145 prostate
[31] = system: EKVX NSCLC
[32] = system: MDA-N
[33] = system: MCF7 breast
[34] = system: NCI-H226 lung
[35] = system: HCC-2998 colon
[36] = system: SK-MEL-5 melanoma
[37] = system: UACC-62 melanoma
[38] = system: ACHN renal
[39] = system: HS 578T breast
[40] = system: OVCAR-8 ovarian
[41] = system: U251 CNS
[42] = system: CCRF-CEM leukemia
[43] = system: SF-268 CNS
[44] = system: LOX IMVI melanoma
[45] = system: NCI-H23 lung
[46] = system: SR leukemia
[47] = system: NCI/ADR-RES ovarian
[48] = system: SF-295 CNS
[49] = system: SK-MEL-28 melanoma
[50] = system: RPMI-8226 leukemia
[51] = system: SF-539 CNS
[52] = system: IGROV1 ovarian
[53] = system: K-562 leukemia
[54] = system: MOLT-4 leukemia
[55] = system: SNB-75 CNS

Q: How did the TGI [1] turn out when COc1cc2cc(C(=O)N3CC(CCl)c4c3cc(NC(=O)C(C)Nc3c([N+](=O)[O-])cc(C(=O)NCCN(C)C)cc3[N+](=O)[O-])c3ccccc43)[nH]c2c(OC)c1OC (stereo unspecified) was run?
A: 0.551 µM

Q: What about the TGI [2] of the same compound?
A: 0.643 µM

Q: What about the TGI [3] of the same compound?
A: 0.235 µM

Q: What about the TGI [4] of the same compound?
A: 0.572 µM

Q: And the TGI [5]?
A: 1.16 µM

Q: What about the TGI [6] of the same compound?
A: 0.159 µM

Q: And the TGI [7]?
A: 0.285 µM

Q: And the TGI [8]?
A: 2.5 µM

Q: And the TGI [9]?
A: 0.433 µM

Q: And the TGI [10]?
A: 0.362 µM

Q: What about the TGI [11] of the same compound?
A: 2.23 µM

Q: And the TGI [12]?
A: 0.342 µM

Q: And the TGI [13]?
A: 1.44 µM

Q: What about the TGI [14] of the same compound?
A: 0.359 µM

Q: And the TGI [15]?
A: 0.457 µM

Q: What about the TGI [16] of the same compound?
A: 0.192 µM

Q: And the TGI [17]?
A: 0.649 µM

Q: What about the TGI [18] of the same compound?
A: 0.279 µM

Q: And the TGI [19]?
A: 0.909 µM

Q: And the TGI [20]?
A: 0.178 µM

Q: What about the TGI [21] of the same compound?
A: 0.544 µM

Q: What about the TGI [22] of the same compound?
A: 3.35 µM

Q: What about the TGI [23] of the same compound?
A: 0.356 µM

Q: And the TGI [24]?
A: 0.283 µM

Q: And the TGI [25]?
A: 0.27 µM

Q: What about the TGI [26] of the same compound?
A: 0.374 µM

Q: And the TGI [27]?
A: 0.419 µM

Q: And the TGI [28]?
A: 0.992 µM

Q: And the TGI [29]?
A: 0.0297 µM

Q: What about the TGI [30] of the same compound?
A: 1.03 µM

Q: And the TGI [31]?
A: 1.01 µM

Q: What about the TGI [32] of the same compound?
A: 0.371 µM

Q: And the TGI [33]?
A: 0.127 µM

Q: What about the TGI [34] of the same compound?
A: 0.34 µM

Q: What about the TGI [35] of the same compound?
A: 0.16 µM

Q: What about the TGI [36] of the same compound?
A: 0.232 µM

Q: With COc1cc2oc(=O)cc(C)c2cc1OC as the compound, how does the TGI [1] read?
A: > 100 µM

Q: What about the TGI [2] of the same compound?
A: > 100 µM

Q: What about the TGI [3] of the same compound?
A: > 100 µM

Q: And the TGI [4]?
A: > 100 µM

Q: What about the TGI [37] of the same compound?
A: > 100 µM

Q: And the TGI [38]?
A: > 100 µM

Q: And the TGI [5]?
A: > 100 µM

Q: And the TGI [39]?
A: > 100 µM

Q: What about the TGI [40] of the same compound?
A: > 100 µM

Q: What about the TGI [41] of the same compound?
A: > 100 µM

Q: What about the TGI [6] of the same compound?
A: > 100 µM

Q: And the TGI [7]?
A: > 100 µM

Q: And the TGI [8]?
A: > 100 µM

Q: What about the TGI [9] of the same compound?
A: > 100 µM

Q: What about the TGI [10] of the same compound?
A: > 100 µM

Q: And the TGI [11]?
A: > 100 µM

Q: And the TGI [12]?
A: > 100 µM

Q: And the TGI [13]?
A: > 100 µM

Q: What about the TGI [14] of the same compound?
A: > 100 µM

Q: And the TGI [15]?
A: > 100 µM

Q: What about the TGI [16] of the same compound?
A: > 100 µM

Q: What about the TGI [42] of the same compound?
A: > 100 µM

Q: What about the TGI [43] of the same compound?
A: > 100 µM

Q: And the TGI [19]?
A: > 100 µM

Q: What about the TGI [44] of the same compound?
A: > 100 µM

Q: What about the TGI [45] of the same compound?
A: > 100 µM

Q: What about the TGI [46] of the same compound?
A: > 100 µM

Q: What about the TGI [21] of the same compound?
A: > 100 µM

Q: And the TGI [22]?
A: > 100 µM

Q: And the TGI [47]?
A: > 100 µM

Q: And the TGI [23]?
A: > 100 µM

Q: What about the TGI [24] of the same compound?
A: > 100 µM

Q: And the TGI [25]?
A: > 100 µM

Q: And the TGI [48]?
A: > 100 µM

Q: And the TGI [49]?
A: > 100 µM

Q: What about the TGI [26] of the same compound?
A: > 100 µM

Q: And the TGI [27]?
A: > 100 µM

Q: What about the TGI [28] of the same compound?
A: > 100 µM

Q: And the TGI [50]?
A: > 100 µM

Q: And the TGI [51]?
A: > 100 µM

Q: What about the TGI [30] of the same compound?
A: > 100 µM

Q: What about the TGI [31] of the same compound?
A: > 100 µM

Q: What about the TGI [32] of the same compound?
A: > 100 µM

Q: What about the TGI [52] of the same compound?
A: > 100 µM

Q: What about the TGI [33] of the same compound?
A: > 100 µM

Q: What about the TGI [53] of the same compound?
A: > 100 µM

Q: And the TGI [34]?
A: > 100 µM

Q: And the TGI [54]?
A: > 100 µM

Q: What about the TGI [36] of the same compound?
A: > 100 µM

Q: And the TGI [55]?
A: > 100 µM
